Test results from patent US7491707B1, “Synthetic lipid-a-analogs and uses thereof” (Biomira, Inc., priority 1999, dated 2009).
Entries after “also recorded” stand apart in the source; their conditions may differ.

Tests used:
Interferon-gamma (IFN-γ) = Interferon-gamma (IFN-γ) production in cell culture supernatants by ELISA, lymphocytes of mice immunized with adjuvanted MUC1 liposomal vaccine; format: in vivo, C57-Black mice; conditions: for Interferon-gamma (IFN-γ, pg/ml): s.c. liposomal vaccine 40 μg BP1-148 + 20 μg Lipid-A analog per dose, nine days after injection; for interferon-gamma production: in words, liposomal vaccine formulations in mice, FIG. 31-FIG. 33
Method: (§1) Typically, the liposomal formulation was composed of 400 μg of MUC1-based lipopeptide BP1-148, H2N-[…](Pal)G-OH, 200 μg of Lipid-A analog, 6.94 mg of cholesterol, 1.46 mg of dimyristoyl phosphatidylglycerol ([…]) and 11.62 mg of dipalmitoyl phosphatidylcholine (DPPC) per 1 ml of saline (0.9% NaCl solution).
(§2) The liposomal constructs were formulated by first dissolving the phospholipids, cholesterol and Lipid A analog in tert-butanol at about 53° C. Lipopeptide and water (5%, v/v) were then added to the tert-butanol solution. The resulting clear 95% tert-butanol solution was injected into about 4 volumes of rapidly stirred water at about 50° C., using a glass syringe with an 18-gauge needle. The small unilamellar vesicles (SUV) formed in this process were cooled, sterilized by filtration through a 0.22 μm membrane filter, filled into vials and lyophilized. The dry powder was re-hydrated with sterile saline before injection, resulting in the formation of multilamellar large vesicles (MLV). The liposomes formed are used to immunize mice.
(§3) Groups of C57-Black mice were immunized subcutaneously with the liposomal vaccine containing 40 μg of MUC1-based lipopeptide BP1-148 (FIG. 34), which has the peptide sequence of H2N-[…](Pal) G-OH, and 20 μg of Lipid-A analog per dose. Nine days after vaccine injection mice were sacrificed and lymphocytes were taken from the draining lymph nodes (local response) or from the spleens (systemic response) to determine the immune response in each group. The lymphocytes taken from immunized mice were incubated in in vitro cultures in the presence of MUC1-based boosting antigen BP1-151, which has the peptide sequence H2N-[…]-OH.
Interferon-gamma (IFN-γ) levels were determined in the cell culture supernatants using enzyme-linked immunoabsorbent assay (ELISA). 96-Well plates were coated with 50 μl of catcher Mabs in 50 μl of R4.6AZ at 37° C. for 30 min. The plates were then washed and incubated with test samples for 45 min. After two washes the second biotinylated antibody, XMG1.2 was added. After washing, peroxidase-conjugated streptavidin was added and incubated again for 30 min. Finally, 100 μl of horseradish peroxidase (HRPO) substrate solution was added. The optical density was measured with a Thermomax ELISA reader at 405 nm wavelength in kinetic mode for 10 min. The interferon-gamma (IFN-γ) levels corresponding to various Lipid-A analogs are shown in Table 1-Table 3 and FIG. 31-FIG. 33.

T-cell = T-cell proliferation (3H thymidine incorporation) of lymph node lymphocytes from mice immunized with MUC1-based liposomal vaccine adjuvanted with Lipid-A analog; format: in vivo, C57-Black mice; conditions: for T-cell-Proliferation (CPM): s.c. liposomal vaccine 40 μg BP1-148 + 20 μg Lipid-A analog per dose, nine days after injection, boosting antigen BP1-151; for T-cell blastogenesis: in words, liposomal vaccine formulations in mice, FIG. 31-FIG. 33
Method: as §1, §2, §3
T-cell proliferation was evaluated using a standard ^3H thymidine incorporation assay. Briefly, nylon wool passed inguinal lymph node lymphocytes from each mouse were added to a culture containing 106 native mitomycin C treated syngeneic splenocytes, which serves as antigen presenting cells (APCs). To each well 20 μg of MUC1-based boosting peptide BP1-151, H2N-[…]-OH (single letter amino acid code, Table 8), was added for positive control; and cultures containing no antigen or peptide BP1-72, which has the peptide sequence H2N-[…]-OH, were used as negative control. The culture was incubated for 72 h in a total volume of 250 μl well, followed by adding 1 μCi of ^3H-thymidine in a volume of 50 μl. The plates were incubated for an additional 18-20 h. Cells were harvested and [^3H]dTh incorporation was measured by liquid scintillation counter. T-cell proliferation results corresponding to various liposomal vaccines adjuvanted, with different Lipid-A analogs are summarized in Tables 1-Table 3 and FIG. 31-FIG. 33.

[1] = Solubility of Lipid-A analogs for incorporation into liposomes; format: physicochemical; conditions: in words; given as cause of poor incorporation into liposomes
C57-Black mice = assay: Lethal toxicity of Lipid-A analogs injected i.p. followed by Actinomycin D; format: in vivo; conditions: for No. Survived/No. Tested (+24 h): Actinomycin D +
Method: Synthetic Lipid-A analog 86 and the Natural Lipid-A (see Example 95 for more detail) were tested for their lethal toxicity. Test methods and results are summarized below (Table 4) • a) Preparation of Lipid-A analog solution: 1 mg of Lipid-A analog was dissolved in 1 ml of 20% DMSO and diluted with saline to obtain 50 μg, 10 μg and 2 μg doses in 0.5 ml. • b) Preparation of Actinomycin D: 5 mg of Actinomycin D was dissolved in 1 ml of ethanol and diluted with saline to obtain a dose at 550 μg/kg in 0.5 ml. • c) Procedure: Various doses of Lipid-A analogs or solvent as control were injected intraperitoneally (i.p.) into C57-Black mice. Twenty minutes later all groups of mice were injected with 500 μl of Actinomycin D. Mice were then observed for mortality or any other symptoms of toxicity.

[2] = system: immune response to MUC1-based lipopeptide BP1-148; assay: Adjuvanticity of Lipid-A analogs in liposomal vaccine with MUC1 lipopeptide BP1-148 (T-cell blastogenesis and IFN-γ production); format: in vivo, mice; conditions: in words
Text: Liposome formulations have been used to evaluate the adjuvant properties of various synthetic Lipid-A structures and the immune responses to a synthetic lipopeptide antigen BP-148, H2N-[…](Pal)G-OH (FIG. 34), a modified 25-amino-acid sequence derived from tumor-associated MUC1 mucin. The commercially available Lipid-A product, which is currently under clinical evaluation as an adjuvant for vaccine programs, was used for comparison. The natural Lipid-A product, purchased from AVANTI, contained a mixture of Lipid-A analogs extracted from Salmonella bacterial cell wall and is designated as Natural Lipid-A in this invention.
Thus, the liposomal formulations containing the synthetic lipopeptide antigen, BP1-148, and Lipid-A analogs 33, 48, 54, 58, 70, 77, 86, 94, 102, 104 or Natural Lipid-A, were used to immunize mice to measure their immune response in terms of T-cell blastogenesis and interferon-gamma (IFN-γ) production. The compounds were tested in three groups at different time and their preliminary results are shown separately in FIGS. 31-33. As the variations are attributed to different factors such as animal groups and experimental factors, the data from different groups will not be compared.
as §3

[3] = literature bioassays; cited from earlier work

Compound	Interferon-gamma (IFN-γ, pg/ml) (Interferon-gamma (IFN-γ); Table 1, first test group) [pg/mL]	interferon-gamma production (Interferon-gamma (IFN-γ))	T-cell-Proliferation (CPM) (T-cell; Table 1, first test group)	T-cell blastogenesis (T-cell)	solubility [1]	Interferon-gamma (IFN-γ, pg/ml) (Interferon-gamma (IFN-γ); Table 2, second test group) [pg/mL]	T-cell-Proliferation (CPM) (T-cell; Table 2, second test group)	other results
CCCCCCCCCCCCCC(=O)N[C@@H](CC(=O)N[C@H]1[C@H](OC[C@H]2OC(O)[C@H](NC(=O)C[C@@H](CCCCCCCCCCC)OC(=O)CCCCCCCCCCCCC)[C@@H](O)[C@@H]2O)O[C@H](CO)[C@@H](OP(=O)(O)O)[C@@H]1OC(=O)C[C@@H](CCCCCCCCCCC)OC(=O)CCCCCCCCCCCCC)C(=O)NCCCCCCCCC (stereo partly drawn) [Compound 58, 2-Deoxy-6-O-{2-deoxy-2-[(3S)-3-tetradecanamido-4-nonylamino-4-oxo-butanamido]-4-O-phosphono-3-O-[(3R)-3-tetradecanoyloxytetradecanoyl]-β-D-glucopyranosyl}-2-[(3R)-3-tetradecanoyloxytetradecanamido]-α/β-D-glucopyranose]	0	inactive	686	inactive	poor solubility	–	–	–
CCCCCCCCCCCCCC(=O)O[C@H](CCCCCCCCCCC)CC(=O)N[C@H]1[C@H](OC[C@H]2OC(O)[C@H](NC(=O)C[C@@H](CCCCCCCCCCC)OC(=O)CCCCCCCCCCCCC)[C@@H](OC(=O)C[C@H](O)CCCCCCCCCCC)[C@@H]2O)O[C@H](CO)[C@@H](OP(=O)(O)O)[C@@H]1OC(=O)C[C@@H](CCCCCCCCCCC)OC(=O)CCCCCCCCCCCCC (stereo partly drawn) [Compound 86, 2-Deoxy-6-O-{2-deoxy-4-O-phosphono-2-[(3R)-3-tetradecanoyloxytetradecanamido]-3-O-[(3R)-3-tetradecanoyloxytetradecanoyl]-β-D-glucopyranosyl}-3-O-[(3R)-3-hydroxytetradecanoyl]-2-[(3R)-3-tetradecanoyloxytetradecanamido]-α/β-D-glucopyranose]	–	high levels of interferon-gamma	–	significant T-cell blastogenesis	–	36461	52382	Interferon-gamma (IFN-γ, pg/ml) (Interferon-gamma (IFN-γ); Table 3, third test group): 17697 pg/mL; T-cell-Proliferation (CPM) (T-cell; Table 3, third test group): 15486 CPM; survival of the study (C57-Black mice; all three doses (50 μg, 10 μg, 2 μg) i.p., experiment terminated 4 days later): survived the study; No. Survived/No. Tested (+24 h) (C57-Black mice; dose 2/500 μg/μl i.p.): 3/3; No. Survived/No. Tested (+24 h) (C57-Black mice; dose 10/500 μg/μl i.p.): 3/3; No. Survived/No. Tested (+24 h) (C57-Black mice; dose 50/500 μg/μl i.p.): 3/3; toxicity compared to Natural Lipid-A product from Salmonella (C57-Black mice; in words, in vivo, C57-Black mice, Actinomycin D): much less toxic; also recorded: much lower; adjuvant activity compared to Natural Lipid-A (Lipid-A preparation of bacterial origin) ([2]; liposomal formulations with BP1-148 in mice, FIGS. 31-33): as effective; activity compared to the other synthetic Lipid-A analogs ([2]; second group (FIG. 32)): slightly more active
CCCCCCCCCCCCCC(=O)N[C@@H](CC(=O)N[C@H]1C(O)O[C@H](CO)[C@@H](OP(=O)(O)O)[C@@H]1OC(=O)CCCCCCCCCCCCC)C(=O)NCCCCCCCCC (stereo partly drawn) [Compound 33, 2-Deoxy-4-O-phosphono-2-[(3S)-3-tetradecanamido-4-nonylamino-4-oxo-butanamido]-3-O-tetradecanoyl-α/β-D-glucopyranose]	0	inactive	822	inactive	poor solubility	–	–	–
CCCCCCCCCCCCCC(=O)N[C@@H](CC(=O)N[C@H]1[C@H](OC[C@H]2OC(O)[C@H](NC(=O)C[C@@H](CCCCCCCCCCC)OC(=O)CCCCCCCCCCCCC)[C@@H](OC(=O)C[C@H](O)CCCCCCCCCCC)[C@@H]2O)O[C@H](CO)[C@@H](OP(=O)(O)O)[C@@H]1OC(=O)C[C@@H](CCCCCCCCCCC)OC(=O)CCCCCCCCCCCCC)C(=O)NCCCCCCCCC (stereo partly drawn) [Compound 77, 2-Deoxy-6-O-{2-deoxy-2-[(3S)-3-tetradecanamido-4-nonylamino-4-oxo-butanamido]-4-O-phosphono-3-O-[(3R)-3-tetradecanoyloxytetradecanoyl]-β-D-glucopyranosyl}-3-O-[(3R)-3-hydroxytetradecanoyl]-2-[(3R)-3-tetradecanoyloxytetradecanamido]-α/β-D-glucopyranose]	–	inactive	–	inactive	poor solubility	0	2565	–
monophosphoryl Lipid-A	–	–	–	–	–	–	–	potency on a molar basis in eliciting toxic and pyrogenic responses, compared to diphosphoryl Lipid-A [3]: 1000 times less potent
